In patent US20120302609A1, “Pyrazolines for the Modulation of PKM2” (Dynamix Pharmaceuticals LTD., priority 2011, published 2012):

Assays:
HT-29 xenograft = HT-29 xenograft mouse model, tumor efficacy; assay type: in vivo; details: i.p.
Experimental: This example illustrates the efficacy and safety of a compound according to embodiments of the present invention, i.e., Compound 1A, using a HT-29 xenograft mouse model (a colorectal cancer model).
The HT-29 cells were maintained in vitro as a monolayer culture in McCoy's 5A medium supplemented with 10% heat inactivated fetal bovine serum, 100 U/ml penicillin and 100 μg/ml streptomycin at 37° C. in an atmosphere of 5% CO2 in air. The tumor cells were routinely subcultured twice weekly by trypsin-EDTA treatment. The cells growing in an exponential growth phase were harvested and counted for tumor inoculation.
65 mice were inoculated subcutaneously at the right flank with 3.0×10^6 HT-29 tumor cells in 0.1 ml of serum-free medium for tumor development. The treatments were started when the tumor size reached approximately 75 (50-100) mm^3. The test article administration and the animal numbers in each group are shown in the following experiment design Table 5.
The major endpoint was to see if the tumor growth can be delayed or mice can be cured. Tumor size was measured three times weekly in two dimensions using a caliper, and the volume was expressed in mm^3 using the formula: V=0.5 a×b^2 where a and b are the long and short diameters of the tumor, respectively. The tumor size was then used for calculations of both T-C and TGI values. T-C was calculated with T as the median time (in days) required for the treatment group tumors to reach a predetermined size (e.g., 1,000 mm^3), and C as the median time (in days) for the control group tumors to reach the same size. The TGI (in percent)=(T−C)/C*100% represents the tumor growth inhibition rate, T and C were the mean volume of the treated and control groups, respectively, on a given day. Tumor weight was measured at the study termination. The T/C value (in percent) was calculated where T and C are the mean tumor weights of the treated and control groups, respectively.

PKR = PKR (Homo sapiens, UniProt P30613); test: Isoform selectivity of pyruvate kinases; assay type: biochemical
Sequence of PKR (P30613 whole entry, canonical isoform): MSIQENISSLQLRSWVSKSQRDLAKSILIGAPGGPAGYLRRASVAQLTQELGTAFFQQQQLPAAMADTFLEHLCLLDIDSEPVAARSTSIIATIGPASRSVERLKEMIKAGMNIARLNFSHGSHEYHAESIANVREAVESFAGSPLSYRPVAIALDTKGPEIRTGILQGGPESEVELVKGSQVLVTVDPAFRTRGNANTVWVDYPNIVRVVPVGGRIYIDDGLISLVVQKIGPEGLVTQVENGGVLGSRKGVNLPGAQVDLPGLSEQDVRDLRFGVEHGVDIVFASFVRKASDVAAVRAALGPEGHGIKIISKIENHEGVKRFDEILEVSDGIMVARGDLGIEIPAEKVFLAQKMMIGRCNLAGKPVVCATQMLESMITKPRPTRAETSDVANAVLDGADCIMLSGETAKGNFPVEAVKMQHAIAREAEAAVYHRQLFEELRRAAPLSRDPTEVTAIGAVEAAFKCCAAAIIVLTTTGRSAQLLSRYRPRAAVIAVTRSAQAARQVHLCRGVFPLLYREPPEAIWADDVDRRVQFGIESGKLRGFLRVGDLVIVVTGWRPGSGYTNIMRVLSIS

[1] = H1299 nude mouse xenograft study, toxicity (body weight, deaths, organ weights); assay type: in vivo, mice; details: mouse, in vivo, ip; for Deaths NTR: female, nude (nu/nu)
Experimental: The animals were fed ad libitum water (reverse osmosis, 1 ppm Cl) and NIH 31 Modified and Irradiated Lab Diet® consisting of 18.0% crude protein, 5.0% crude fat, and 5.0% crude fiber. The mice were housed on irradiated Enrich-o′ Cobs™ Laboratory Animal Bedding in static microisolators on a 12-hour light cycle at 20-22° C. (68-72° F.) and 40-60% humidity.
Dosing began on D1 in four groups of mice (n=12/group in Groups 1, 3, and 4; n=6 in Group 2). XT26 and its vehicle were administered intraperitoneally (i.p.) twice daily for 28 days (b.i.d.×28), starting with the p.m. dose on D1 and ending with the a.m. dose on D29. Gemcitabine was administered i.p. once daily at three-day intervals for four doses (q3d×4). In all groups, the dosing volume of 10 ml/kg (0.2 ml/20 g mouse) was scaled to the weight of each individual animal, as measured twice weekly.
Group 1 mice received the XT26 vehicle b.i.d.×28, and served as the controls for the study. Group 2 received gemcitabine at 120 mg/kg. Group 3 was to receive XT26 at 100 mg/kg b.i.d.×28; on D21, four mice (Animals 1, 3, 4, and 5) erroneously received 200 mg/kg XT26 for their a.m. dose. Group 4 was to receive XT26 at 200 mg/kg b.i.d.×28, but dosing stopped on D9 (b.i.d.×8) because of toxicity. Group 4 dosing at 200 mg/kg resumed on D17 on a qd (once daily)×13 dosing schedule. Because of a scheduling error, the D19 dose for Group 4 mice was omitted; qd dosing occurred on Days 17, 18, and 20-28.
Animals were weighed daily on D1-5, then twice weekly until the completion of the study. The mice were observed frequently for overt signs of any adverse, treatment-related side effects.
On D10, both kidneys and the liver were harvested from each euthanized Group 4 animal. Each organ was weighed separately, fixed overnight in 10% neutral buffered formalin, and transferred to 70% ethanol.

Row | SMILES | anti-tumor activity (HT-29 xenograft; 100 mg/kg Q2D) | anti-tumor activity (HT-29 xenograft; 200 mg/kg QD) | TGI reached by day ten (HT-29 xenograft; 200 mg/kg QD) | Tumor Growth Inhibition (TGI) (HT-29 xenograft; 400 mg/kg QD, HT-29 xenograft, BALB/c nude mice) | TGI reached by day ten (HT-29 xenograft; 400 mg/kg QD) | AC50 (PKR) | Deaths NTR ([1]; 100 mg/kg, 28 days) | Deaths NTR ([1]; 200 mg/kg) | Mean BW Nadir ([1]; 200 mg/kg)
1 | CCS(=O)(=O)Nc1ccc(C2=NN(C(C)=O)C(c3ccc(OC)cc3)C2)cc1 (racemic) [Compound 1A, N-(4-(1-acetyl-5-(4-methoxyphenyl)-4,5-dihydro-1H-pyrazol-3-yl)phenyl)ethanesulfonamide] | statistically significantly anti-tumor activity | statistically significantly anti-tumor activity | > 50% | 42% | > 50% | – | – | – | –
2 | COc1ccc([C@@H]2CC(c3ccc(NS(=O)(=O)c4ccc(F)cc4)cc3)=NN2C(C)=O)cc1 [Compound 13A, (S)—N-(4-(1-acetyl-5-(4-methoxyphenyl)-4,5-dihydro-1H-pyrazol-3-yl)phenyl)-4-fluorobenzenesulfonamide] | – | – | – | – | – | > 30 µM | 0 | 0 | −13.6%
